Data as given in US10174068B2, “Methods of functionalization and reagents used in such methods using an aza-isatoic anhydride or a derivative thereof, biological molecules thus treated and kits” (BIOMERIEUX, priority 2012, dated 2019).

Assays:
[1] = system: mixture of HIV RNA transcripts and genomic calf DNA; test: Selective extraction of HIV RNA transcripts from a mixture with genomic DNA (functionalization/capture/cleavage/elution, Qubit quantification); conditions: tag at 1.5 mM; for Final DNA/RNA ratio: after elution step 4
Experimental: For this, two biological models of nucleic acids were selected, HIV transcripts for RNA and genomic calf DNA. In order to compare the efficacy of the aza-isatoic derivative 14, these tests were also carried out on the reference compound Biot-peg4-SS-IAMe at 65° C. and at room temperature.
The nucleic acids used in this example are as follows: • HIV transcripts WT 1500 bases, at 1.94 μg/μL. • gDNA calf thymus, SIGMA (Saint Louis, USA), ref. D4764-5UN, at 1.92 μg/μL.
The following reagents are put in three 0.2-ml plastic tubes (Table 2 below):
In each case, the final concentrations of TEAAc and of functionalizing reagent are 250 mM and 1.5 mM respectively.
The three tubes are incubated for 1 hour at room temperature or at 65° C. on a heated rack.
Purification of the nucleic acids for each test was carried out in 5 different tubes of equivalent volume, in order to meet the optimum conditions for this step (i.e. 1 mg of magnetic silica per 2 μg of nucleic acids). Thus, each test is distributed in five 1.5-mL Eppendorf tubes i.e. 5 times 2.1 μL (2 μg of AN). 900 μL of lysis buffer (Easy Mag buffer, ref. 280134, bioMerieux, Marcy l'Etoile, France) and 50 μL of magnetic silica particles (EasyMAG silica, ref. 280133, bioMerieux, Marcy l'Etoile, France) are added to each tube. The latter are immediately stirred by the vortex effect after adding the silica, and then incubated for 10 minutes at room temperature. After magnetization on a DYNAL magnet, the supernatants are removed by aspiration with a pipette. For the next washing steps, the tubes are always stirred by the vortex effect and magnetized, followed by removal of the supernatant. A first washing is carried out with 500 μL of washing buffer 1 (Easy Mag buffer, ref. 280130, bioMerieux, Marcy l'Etoile, France). Two washings are then carried out with 900 μL and then 500 μL of washing buffer 2 (Easy Mag buffer, ref. 280131, bioMerieux, Marcy l'Etoile, France). Finally, a last washing step is carried out with 500 μL of elution buffer 3 (Easy Mag buffer, ref. 280132, bioMerieux, Marcy l'Etoile, France) at room temperature. […] The latter are analysed with the Qubit® Fluorometer instrument, ref. Q32857, Invitrogen (Carlsbad, Calif., United States of America), and using the kits Quant-iT RNA Assay Kit 5-100 ng (ref. Q32855, Invitrogen, Carlsbad, Calif., United States of America), and Quant-iT dsDNA HS Assay Kit 0.2-100 ng (ref. Q32854, Invitrogen, Carlsbad, Calif., United States of America). These analysis kits allow an RNA/DNA ratio to be determined in a mixture.
To perform this capture on magnetic particles, it is necessary to store each of the tests divided into 5 tubes in the preceding purification step. […] This supernatant is analysed as before with the Qubit® Fluorometer. […]

[2] = system: ORN with 27 bases; test: Functionalization of a 27-mer ORN, degree of functionalization (Df) by HPLC after nuclease P1/alkaline phosphatase hydrolysis
Experimental: A comparison of the reactivity of the aza-isatoic anhydride derivative 14 relative to the reference isatoic derivative, Biot-peg4-SS-IAMe as described in WO-A-2012/076794, with respect to a 27-base model ORN (seq: 5′-AAC-CGC-AGU-GAC-ACC-CUC-AUC-AUU-ACA-3′, Eurogentec, Liege Science Park, Belgium) is carried out. For this, a fixed amount of ORN is reacted with an isatoic anhydride derivative conjugated with a molecule of interest, at 65° C. and at room temperature. The reaction is monitored by HPLC at 260 nm as was described previously in patent application WO-A-2012/076794 in example 3. This analysis makes it possible to detect the disappearance of the peak corresponding to the initial ORN and the appearance of peaks corresponding to the acylated ORN. These products have a greater retention time, and an absorption spectrum corresponding both to that of the ORN, and to that of the functionalizing reagent.
For precise evaluation of the degree of functionalization (Df), the ORN population (labelled and unlabelled) is separated from the surplus marker by precipitation with acetone/lithium perchlorate. Then the ORNs thus obtained are submitted to hydrolysis with nuclease P1 (Aldrich, Saint Louis, USA) and with alkaline phosphatase (Aldrich, Saint Louis, USA) in order to hydrolyse the phosphate diester bonds of the ORN.
LC-MS analysis of this mixture then allows several populations to be characterized and identified: • unlabelled ribonucleosides; • labelled mono-nucleoside adducts, which differ very clearly by a longer retention time, and by a UV spectrum characteristic of the nucleic acids and of the functionalizing reagent; • dinucleotides acylated at 2′ which, because of the anthranilate group substituted with the group of interest at 2′, cannot be cleaved by the nuclease P1; • per-acylated 2′OH trinucleotides or tetranucleotides, which may form theoretically but which are statistically very little represented (as this would then require two or three consecutive acylations of 2′OH), are not investigated.
The degree of functionalization of the ORN (Df) is evaluated by measuring: • the area corresponding to the terminal mononucleoside adducts (functionalized at 2′ and at 3′) and the area corresponding to the acylated dinucleotides (functionalized internally on the 2′OH) • compared to the area of the peaks corresponding to the four ribonucleosides.
In a standard experiment, the equivalent of 8 nmol of an ORN with 27 bases (5′-AAC-CGC-AGU-GAC-ACC-CUC-AUC-AUU-ACA-3′, Eurogentec, Liege Science Park, Belgium) in solution in water is first dried in a centrifugal evaporator (RCT 60, Jouan, St Herblain, France) in a 2-mL plastic Eppendorf tube. The dry residue obtained is first dissolved in 40 μL of water, then 20 μl of a buffered solution is added (in the example, a 1M triethylammonium acetate buffer solution, pH 7, Aldrich, St Louis, USA ref: 09748-100 ml). Finally, 20 μl of a solution of an isatoic anhydride derivative at 120 mM in DMSO is incorporated in the preceding solution (either the reference molecule Biot-peg4-SS-IAMe as described in FR 1060102 or the aza-isatoic derivative Biot-peg4-SS-azaIAMe (14) in this example). The mixture is incubated for 60 minutes at room temperature or at 65° C. in a stove on a rack pre-equilibrated in temperature. To remove the salts and the surplus marker, the mixture is then purified by triple precipitation in 1.2 mL of an acetone/LiClO4 180 mM 75/25 mixture. […]

[3] = system: ODN with 27 bases; test: Functionalization of a 27-mer ODN (chemo-selectivity RNA versus DNA); conditions: room temperature, 1 hour, reagent 30 mM, DMSO/TEAAc 250 mM pH 7 25/75
Experimental: 8 nmol of ODN with 27 bases, Seq: 5′-AAC-CGC-AGT-GAC-ACC-CTC-ATC-ATT-ACA-3′ (Eurogentec, Liege Science Park, Belgium) or 8 nmol of an ORN with 27 bases, Seq: 5′-AAC-CGC-AGU-GAC-ACC-CUC-AUC-AUU-ACA-3′ (Eurogentec, Liege Science Park, Belgium) is reacted with the aza-isatoic anhydride derivative (14) at 30 mM in a mixture DMSO/buffer TEAAc (250 mM pH 7) 25/75, for 1 hour at room temperature. After precipitation with acetone and hydrolysis with nuclease P1 and alkaline phosphatase, the hydrolysed fragments are analysed by LC-MS, as described in example 3. An example of chromatograms for monitoring the reaction of the ODN or of the ORN with compound 14 is shown in FIG. 6, where traces A, B and C correspond respectively to the initial ORN, the ORN functionalized with compound 14 and precipitated, and the ORN functionalized with 14, precipitated and hydrolysed. Traces D, E and F represent the same results obtained with the ODN.

[4] = 65° C., 60 minutes, TEAAc pH 7, reagent 120 mM in DMSO diluted in the mixture
[5] = room temperature, 1 hour, TEAAc pH 7, reagent 30 mM

| SMILES | S* (intermediate selectivity index) ([1]; functionalization at 65° C.) | Final DNA/RNA ratio ([1]; functionalization at 65° C.) | uncorrected degree of functionalization (Df) of the ORN [2, 4] | uncorrected degree of functionalization (Df) of the ORN [2, 5] | S* (intermediate selectivity index) ([1]; functionalization at Rt) | Final DNA/RNA ratio ([1]; functionalization at Rt) | uncorrected degree of functionalization of the ODN [3] | factor of increase of reactivity with respect to an oligoribonucleotide relative to the reference compound ([2]; 65° C.) | melting point |
| --- | --- | --- | --- | --- | --- | --- | --- | --- | --- |
| O=C(CCCCC1SCC2NC(=O)NC21)NCCOCCOCCOCCC(=O)NCCSSCCC(=O)Nc1cccc2[nH]c(=O)oc(=O)c12 (centres unmarked) [Biot-peg4-SS-IAMe, reference compound] | 6 | 14/86 | 7.5% | 1% |  |  |  |  |  |
| Cn1c(=O)oc(=O)c2cc(CCC(=O)NCCSSCCNC(=O)CCOCCOCCOCCOCCNC(=O)CCCCC3SCC4NC(=O)NC43)cnc21 [Compound 14, 1-{5-[(3aS,6aR)-2-oxo-hexahydro-1H-thieno[3,4-d]imidazolidin-4-yl]pentanamido}-N-(2-{[2-(3-{1-methyl-2,4-dioxo-1H,2H,4H-pyrido[2,3-d][1,3]oxazin-6-yl}propanamido)ethyl]disulphanyl}ethyl)-3,6,9,12-tetraoxapentadecan-15-amide] |  |  | 13.5% | 7.8% | 30 | 4/96 | 0.5% | 1.8 |  |
| Cn1c(=O)oc(=O)c2cc(CCC(=O)NCCSSCCNC(=O)CCCCC3SCC4NC(=O)NC43)cnc21 (centres unmarked) [Compound 12, 5-[(3AS,6AR)-2-OXO-HEXAHYDRO-1H-THIENO[3,4-D]IMIDAZOLIDIN-4-YL]-N-(2-{[2-(3-{1-METHYL-2,4-DIOXO-1H,2H,4H-PYRIDO[2,3-D][1,3]OXAZIN-6-YL}PROPANAMIDO)ETHYL]DISULPHANYL}ETHYL)PENTANAMIDE] |  |  |  |  |  |  |  |  | 125 °C |
